In patent publication US8814930B2, “Biodegradable endoprosthesis and methods for their fabrication” (Elixir Medical Corporation, priority 2007, dated 2014):

Assay: Pharmacokinetic release profile of novolimus from a stent (FIG. 35)
Assay type: in vivo

- therapeutic tissue drug concentration (at 90 days): 0.5 ng/mg
- drug released (in one month, from a stent): over 85%
SMILES: CO[C@@H]1C[C@H](C[C@@H](C)[C@@H]2CC(=O)[C@H](C)/C=C(\C)[C@@H](O)[C@@H](OC)C(=O)[C@H](C)C[C@H](C)/C=C/C=C/C=C(\C)[C@@H](O)C[C@@H]3CC[C@@H](C)[C@@](O)(O3)C(=O)C(=O)N3CCCC[C@H]3C(=O)O2)CC[C@H]1O [novolimus, 16-O-desmethyl-rapamycin]
